Measurements: patent US6603046B1, “Bis-aromatic a,β-unsaturated ketones” (Lica Pharmaceuticals A/S, priority 1992, dated 2003)
Converted amounts (≈) assume the structure as drawn. Where two headings read alike, the source gives them in different places.

Legend:
[1] = system: L. major amastigotes; assay: L. major amastigotes in human macrophages, Giemsa counting (Example 6); format: cell-based, Leishmania major
Method: Macrophage culture. The method used in this study was a modification of the one described by Berman et al. (1979). Human peripheral blood monocytes were obtained by Ficoll-Hypaque fractionation of blood from the Blood Bank, Rigshospitalet, Copenhagen, Denmark. Washed cells were suspended in medium RPMI-199 containing penicillin (50 U/ml), and streptomycin (50 μg/ml), 25 mM Hepes, 4 mM L-glutamine, and 10% heat inactivated fetal calf serum (56° C., 30 min). One milliliter of suspension containing 1×10^6 mononuclear cells was added to each well (16 mm in diameter, with one piece of cover glass in 12 mm diameter) of 24 wells of plastic culture trays (Nunc, Denmark). After 4 h and again after 3 days of incubation at 37° C. in 5% CO2-95% air, old medium was removed and washed with warm fresh medium three times, and then replaced with warm fresh medium.
Infection of macrophages with L. major promastigotes. After 6 days incubation the old medium was removed, and one milliliter of 1×10^7 4 days culture of L. major promastigotes (same promastigotes culture as in Example 4) was added to each well. After 24 h infection, macrophage cultures were washed three times with warm fresh medium and replenished with warm fresh medium with different concentrations of licochalcone A or medium alone. The medium was changed every 3 days. After infection, day 3 and day 6 a certain number of macrophage cultures were fixed with absolute methanol, stained with 5% Giemsa stain for 10 min, and examined by light microscopy (×1,000). The percentage of macrophages that contained amastigotes and the number of amastigotes present per infected macrophage were determined in replicate cultures by counting 200 cells per well.

[2] = system: L. major in U937 cells; assay: Intracellular parasite killing, parasite survival index (PSI); format: cell-based, Leishmania major; details: 1 μg/ml
Method: Killing was quantified by a modification of a technique described by Berman et al.
Briefly, 3 days after infection, microtiter well cultures were rinsed once with medium, exposed to 100 μl of prewarmed (37° C.) 0.01% sodium dodecyl-sulfate (SDS) in medium RPMI 1640, and returned to 34° C. for 15 min. By this procedure, macrophages were lysed, according to microscopic observation, and amastigotes were released. 100 μl of medium RPMI 1640 with 20% HFCS were added to each well without removal of the lysing solution. The plates were then transferred to a 26° C. incubator, and amastigotes were left to transform to promastigotes. After 48 h, parasite growth was recorded by adding 1 μCi of ^3H-thymidine (New England Nuclear Corp., Boston, Mass.) to each well. The parasites were harvested 24 h later on glass fiber filters with a harvesting machine (Skatron, Lierbyen, Norway), and ^3H-thymidine incorporation was measured in a liquid scintillation counter (Tricarb; Packard Instrument Co., Inc., Rockville, Md.). The parasite survival index (PSI) was determined. This index is the mean 3H-thymidine incorporation (cpm) in treated infected cells as compared with the untreated infected cells. [formula]

[3] = system: P. falciparum; assay: P. falciparum growth in vitro (Table 14.1, strain not stated); format: cell-based; details: Plasmodium falciparum, read-out: inhibition of malaria parasites (middle figure) (converted)
In short: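 Parasitized erythrocytes (~1% parasitemia) in RPMI with graded compound concentrations, cultured 48 h. 3H-hypoxanthine added for the final 24 h. Growth measured as 3H-hypoxanthine incorporation into parasite DNA by liquid scintillation.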

[4] = system: Sarcina lutea; assay: MIC, macrodilution (Example 17); format: cell-based; details: Micrococcus luteus; 1 strain
[5] = system: Strain = H37RV; assay: MIC with and without 10% human serum; format: cell-based; details: for MIC: Mycobacterium tuberculosis, H37RV
[6] = Plasma concentration and half live in mice after i.p. injection, HPLC (Example 25); format: in vivo
Method: Serum or plasma was diluted with one part of acetonitrile, left for 15 min at 4° C., and centrifugated for 3 min at 10,000 g. An aliquot of the supernatant was chromatographed at 37° C. by HPLC over Spherisorb ODS-2 (5 μm, 120×4.5 mm, Phase Separation LTD, UK) using acetonitrile aqueous acetic acid, 2%, (1:1) as an eluent, flow rate 1.5 ml/min, and UV detection (370 nm and 254 nm).
Standards. Standards containing 14.68 μg/ml, 4.90 μg/ml, and 0.45 μg/ml plasma were freshly prepared every day. The standards were wrapped in tinfoil to avoid light catalyzed isomerization.
A solution of 2,4dimethylnitrobenzene (0.20 μl/ml) was used as an internal standard.
Licochalcone A (10 mg/kg mouse≈200 μg/mouse) was injected i.p. into mice. The mice were sacrificed and bleeded after 15, 30, 60, 120, 240 and 480 min. The plasma was obtained by centrifugation. 100 μl of plasma was added to 100 μl of the solution of the internal standard and the mixture left for 30 min. The mixture was centrifuged for 5 min at 10,000 g and 20 μl of the clear supernatant was analyzed by HPLC (Example 23).

In the case of C=CC(C)(C)c1cc(/C=C/C(=O)c2ccc(O)cc2)c(OC)cc1O [Licochalcone A, licochalcone A], the “number of amastigotes/100 macrophages” value ([1]; 1 μg/ml, 3-day) is reported as 54, the “number of infected macrophages/100 macrophages” value ([1]; 1 μg/ml, 3-day) is reported as 43 and the “number of amastigotes/100 macrophages” value ([1]; 1 μg/ml, 6-day) is reported as 45/45/100. The “number of infected macrophages/100 macrophages” value ([1]; 1 μg/ml, 6-day) was 45/45/100, the “number of amastigotes/100 macrophages” value ([1]; 5 μg/ml, 3-day) was 18 and the “number of infected macrophages/100 macrophages” value ([1]; 5 μg/ml, 3-day) was 7. The “number of amastigotes/100 macrophages” value ([1]; 5 μg/ml, 6-day) was 11, the “number of infected macrophages/100 macrophages” value ([1]; 5 μg/ml, 6-day) was 5 and the “number of amastigotes/100 macrophages” value ([1]; 10 μg/ml, 3-day) was 10. The “number of infected macrophages/100 macrophages” value ([1]; 10 μg/ml, 3-day) was 5, the “number of amastigotes/100 macrophages” value ([1]; 10 μg/ml, 6-day) was 6 and the “number of infected macrophages/100 macrophages” value ([1]; 10 μg/ml, 6-day) was 4. For the same compound, the PSI index [2] was “about 5%”, the inhibition at 0.5 µg/mL ([3]; 0.5 μg/ml) was 39% and the inhibition at 1 µg/mL ([3]; 1 μg/ml) was 69%. For the same compound, the inhibition at 5 µg/mL ([3]; 5 μg/ml) was 98%, the inhibition at 10 µg/mL ([3]; 10 μg/ml) was 98% and the MIC [4] was 4 µg/mL (≈ 11.8 µM). For the same compound, the “increase of MIC when supplemented with 10% of serum” value [5] was 8 fold, the MIC ([5]; read-out: MIC+serum) was 40 µg/mL (≈ 118 µM) and the MIC ([5]; read-out: MIC−serum) was 5 µg/mL (≈ 14.8 µM). For the same compound, the plasma concentration ([6]; 10 mg/kg i.p., after 120 min) was “below det. limit”, the plasma concentration ([6]; 10 mg/kg i.p., after 240 min) was “below det. limit” and the plasma concentration ([6]; 10 mg/kg i.p., after 480 min) was “below det. limit”. The “metabolites in mouse plasma” value ([6]; HPLC) was “Three metabolites have been detected”, the concentration at 15 min ([6]; mouse, plasma, intraperitoneal, 10 mg/kg i.p., after 15 min) was 1330 ng/mL and the concentration at 30 min ([6]; mouse, plasma, intraperitoneal, 10 mg/kg i.p., after 30 min) was 280 ng/mL. For the same compound, the concentration at 60 min ([6]; mouse, plasma, intraperitoneal, 10 mg/kg i.p., after 60 min) was 140 ng/mL.
